Experiments:
Tyk2 = Tyk2 (Homo sapiens, UniProt P29597); test: JAK kinase inhibition assay (EZ Reader, peptide substrate phosphorylation) - Tyk2; assay type: biochemical; details: Tyk2 kinase 1 nM; 8 concentration points, max 10 μM
Source text: (§1) Assay for Identifying Inhibitory Effects of Compounds on JAK Kinases
(§2) Janus kinases (JAK), including JAK1, JAK2, JAK3 and Tyk2, transduce a cytokine-mediated signal through a JAK-STAT pathway. The kinases are 120-140 kDa in size and have 7 determined homology regions: JH1 to JH7. JH1 is an important region for enzymatic activity and has typical characteristics of tyrosine kinases. Phosphorylation of tyrosine leads to a change in the conformation of JAK protein, thereby promoting binding of substrate. The JAK-STAT system includes three main parts: receptors penetrating a cell membrane, Janus kinases binding to the receptors, and signal transducers and activators of transcription (STAT) for transmitting signals to a nucleus and DNA. When cytokines bind to receptors, JAK phosphorylates the receptors and attracts STAT proteins. The STAT proteins are also phosphorylated and combined with one another to form dimers. The dimers enter the nucleus and bind to DNA, thereby leading to gene transcription.
(§3) EZ Reader from PerkinElmer can be used to detect the phosphorylation of polypeptide substrates catalyzed by kinases. The device is based on microfluidic techniques, and can directly detect fluorescently labeled substrates and products. The separation step is achieved by controlling the pressure and electric field strength in the microfluidic chip. In kinase assays, a product conversion ratio is usually controlled to be 20-30%. A biological test is used to identify inhibitory effects of compounds on JAKs.
(§4) Compound powder was dissolved in DMSO, sealed and stored in a freezer under −20° C. The in-house compound Ref1 was used as a positive control for JAK1, JAK2 and Tyk2 tests, and Ref2 was used as a positive control for JAK3 tests.
(§5) S2.8. Assay buffer: 20 mM HEPES buffer, pH 7.4, 10 mM magnesium chloride, 0.01% bovine serum albumin BSA, 0.0005% Tween-20 and 1 mM dithiothreitol solution.
(§6) S2.9. Stop buffer: 180 mM HEPES buffer, 20 mM ethylenediaminetetraacetic acid and 0.2% coating reagent 3.
(§7) S2.10. Separation buffer: 100 mM HEPES buffer, 10 mM ethylenediaminetetraacetic acid, 0.0005% Tween 20, 0.1% coating reagent 3 and 1% dimethyl sulfoxide.
(§8) The compound was dissolved in dimethyl sulfoxide and diluted to 10 mM concentration, a certain volume of solution was taken and diluted to 0.6 mM concentration, 10 μL of the 0.6 mM dilution was added to a 384-well microplate, and then was diluted 3-fold with a total of 8 concentration points.
(§9) Positive control (HPE1): Ref1, final concentration: 10 μM […]
(§10) Negative control (ZPE): DMSO, final content: 1.6%
(§11) Compounds: maximum final concentration: 10 μM; 3-fold dilution, 8 concentration points and 2 duplicates.
(§12) S4.1. 250 nL of the compound was added to each well of the assay microplate by using ECHO, and centrifuged at 1000 rpm for 1 minute.
(§13) S4.2. 5 μL of the assay buffer was added and agitated for a few seconds to fully dissolve the compound.
(§14) S4.3. 5 μL of 3× substrate solution and 5 μL of 3× kinase solution were added and centrifuged at 800 rpm for 1 minute.
(§15) S4.4. Final concentrations of JAK1, JAK2, JAK3 and Tyk2 kinases in the reaction system were 20 nM, 1 nM, 1 nM and 1 nM respectively.
(§16) S4.5. Incubation at room temperature, where kinases had time differences, and different batches of kinases had time differences.
(§17) S4.6. When 20%-30% of the reaction completed, 15 μL of stop buffer was added to stop the reaction, and centrifuged at 1000 rpm for 2 minutes.
(§18) S4.7. The microplates were placed on EZ Reader for reading.
(§19) S4.8. Readings on EZ Reader were calculated by using a peak height, where product conversion ratio (%)=product/(product+substrate)*100.
(§20) 5. Data Processing: IC50 calculation
(§21) A graphing software Xlfit was used to form a concentration curve of the test compound, and an IC50 value was calculated.
(§22) “A” means “≥10 μM”; “B” means “≥1 μM and <10 μM”; “C” means “≥0.1 μM and <1 μM”; and “D” means “<0.1 μM”.

JAK1 = JAK1 (Homo sapiens, UniProt P23458); test: JAK kinase inhibition assay (EZ Reader, peptide substrate phosphorylation) - JAK1; assay type: biochemical; details: JAK1 kinase 20 nM; 8 concentration points, max 10 μM
Sequence of JAK1 (P23458 whole entry): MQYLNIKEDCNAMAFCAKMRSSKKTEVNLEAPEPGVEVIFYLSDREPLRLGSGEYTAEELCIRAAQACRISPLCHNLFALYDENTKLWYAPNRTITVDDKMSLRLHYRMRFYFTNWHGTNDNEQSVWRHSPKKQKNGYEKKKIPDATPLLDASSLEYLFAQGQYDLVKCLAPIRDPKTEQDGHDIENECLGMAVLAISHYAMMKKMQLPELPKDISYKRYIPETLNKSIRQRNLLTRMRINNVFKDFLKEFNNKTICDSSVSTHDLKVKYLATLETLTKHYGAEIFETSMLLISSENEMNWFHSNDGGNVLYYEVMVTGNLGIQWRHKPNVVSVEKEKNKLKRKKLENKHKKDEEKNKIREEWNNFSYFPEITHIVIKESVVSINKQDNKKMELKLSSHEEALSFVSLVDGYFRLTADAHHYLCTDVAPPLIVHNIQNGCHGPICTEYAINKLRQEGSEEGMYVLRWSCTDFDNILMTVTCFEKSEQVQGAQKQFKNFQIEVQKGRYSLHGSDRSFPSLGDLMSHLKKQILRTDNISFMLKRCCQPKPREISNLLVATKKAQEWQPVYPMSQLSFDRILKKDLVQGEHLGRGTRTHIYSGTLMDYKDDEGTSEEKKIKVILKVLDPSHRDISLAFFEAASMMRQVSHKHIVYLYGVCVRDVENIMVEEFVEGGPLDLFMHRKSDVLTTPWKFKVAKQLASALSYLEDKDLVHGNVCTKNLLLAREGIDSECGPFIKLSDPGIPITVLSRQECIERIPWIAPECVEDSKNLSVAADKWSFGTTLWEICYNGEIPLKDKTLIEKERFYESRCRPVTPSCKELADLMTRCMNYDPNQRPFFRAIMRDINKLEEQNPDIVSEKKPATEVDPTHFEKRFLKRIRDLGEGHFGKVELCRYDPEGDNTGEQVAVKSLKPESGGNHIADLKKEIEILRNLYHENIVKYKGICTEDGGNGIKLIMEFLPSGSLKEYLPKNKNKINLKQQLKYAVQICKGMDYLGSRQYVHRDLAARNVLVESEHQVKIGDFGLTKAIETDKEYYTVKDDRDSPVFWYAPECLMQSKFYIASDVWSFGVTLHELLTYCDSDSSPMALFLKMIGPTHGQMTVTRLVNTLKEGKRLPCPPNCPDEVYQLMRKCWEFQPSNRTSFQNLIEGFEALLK
Source text: as §1, §2, §3, §4, §5, §6, §7, §8, §9, §10, §11, §12, §13, §14, §15, §16, §17, §18, §19, §20, §21, §22

Sequence of Tyk2 (P29597 whole entry): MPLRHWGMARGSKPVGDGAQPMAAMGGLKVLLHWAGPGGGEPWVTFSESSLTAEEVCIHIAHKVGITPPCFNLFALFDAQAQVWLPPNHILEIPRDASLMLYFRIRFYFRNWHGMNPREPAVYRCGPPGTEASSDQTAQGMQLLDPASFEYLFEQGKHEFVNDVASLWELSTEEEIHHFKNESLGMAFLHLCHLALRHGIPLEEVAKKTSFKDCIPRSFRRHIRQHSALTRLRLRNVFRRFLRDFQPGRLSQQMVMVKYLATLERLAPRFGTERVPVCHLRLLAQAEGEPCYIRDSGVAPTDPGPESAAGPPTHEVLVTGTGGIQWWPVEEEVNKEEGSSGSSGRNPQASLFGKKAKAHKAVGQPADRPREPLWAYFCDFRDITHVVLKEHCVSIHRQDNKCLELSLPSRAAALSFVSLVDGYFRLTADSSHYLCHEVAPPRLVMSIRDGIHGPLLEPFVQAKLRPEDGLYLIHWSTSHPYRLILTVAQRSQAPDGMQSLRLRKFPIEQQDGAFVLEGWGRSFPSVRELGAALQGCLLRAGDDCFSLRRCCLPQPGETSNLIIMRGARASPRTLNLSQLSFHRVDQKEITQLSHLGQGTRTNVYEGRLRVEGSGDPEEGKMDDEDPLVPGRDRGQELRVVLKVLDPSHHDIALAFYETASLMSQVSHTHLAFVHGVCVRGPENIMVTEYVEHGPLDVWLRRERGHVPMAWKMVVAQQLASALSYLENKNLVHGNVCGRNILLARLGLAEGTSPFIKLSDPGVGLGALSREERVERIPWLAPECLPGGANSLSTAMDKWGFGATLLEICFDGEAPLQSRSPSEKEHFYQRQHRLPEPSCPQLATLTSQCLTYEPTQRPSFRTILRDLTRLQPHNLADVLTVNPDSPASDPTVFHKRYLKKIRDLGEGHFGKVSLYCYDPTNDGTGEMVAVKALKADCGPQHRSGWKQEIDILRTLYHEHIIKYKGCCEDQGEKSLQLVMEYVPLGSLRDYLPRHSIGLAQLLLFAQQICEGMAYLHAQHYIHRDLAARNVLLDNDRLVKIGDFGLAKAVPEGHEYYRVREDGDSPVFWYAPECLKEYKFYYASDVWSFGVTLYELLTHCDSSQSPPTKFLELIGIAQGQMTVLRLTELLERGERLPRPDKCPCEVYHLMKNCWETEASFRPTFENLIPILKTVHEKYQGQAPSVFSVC

Row | SMILES | IC50 (Tyk2) [µM] | IC50 (JAK1) [µM]
1 | Cn1cc(Nc2nccc(-c3ccnc(NC(=O)C4CC4(F)F)c3)n2)cn1 (stereo not shown) [TDM-180792, 2,2-difluoro-N-(4-(2-((1-methyl-1H-pyrazol-4-yl)amino)pyrimidin-4-yl)pyridin-2-yl)cyclopropane-1-carboxamide] | ≥ 10 | ≥ 10
2 | Cn1cc(Nc2nccc(-c3ccc(NS(=O)(=O)CCC(F)(F)F)nc3)n2)cn1 [TDM-180895, 3,3,3-trifluoro-N-(5-(2-((1-methyl-1H-pyrazol-4-yl)amino)pyrimidin-4-yl)pyridin-2-yl)propane-1-sulfonamide] | ≥ 10 | 1 to 10
3 | Cc1cc(-c2ccnc(Nc3cnn(C)c3)n2)cnc1NC(=O)C1CC1 [TDM-180910, N-(3-methyl-5-(2-((1-methyl-1H-pyrazol-4-yl)amino)pyrimidin-4-yl)pyridin-2-yl)cyclopropanemethane] | ≥ 10 | 1 to 10
4 | COCC(=O)Nc1ccc(-c2ccnc(Nc3cnn(C)c3)n2)cn1 [TDM-180831, 2-methoxy-N-(5-(2-((1-methyl-1H-pyrazol-4-yl)amino)pyrimidin-4-yl)pyridin-2-yl)acetamide] | ≥ 10 | 1 to 10
5 | Cn1cc(Nc2nccc(-c3ccnc(NC(=O)CC(F)(F)F)c3)n2)cn1 [TDM-180790, 3,3,3-trifluoro-N-(4-(2-((1-methyl-1H-pyrazol-4-yl)amino)pyrimidin-4-yl)pyridin-2-yl)propanamide] | ≥ 10 | ≥ 10
6 | CN1CCN(Cc2ccc(-c3ccnc(Nc4cnn(C)c4)n3)cc2)CC1 [TDM-180788, N-(1-methyl-1H-pyrazol-4-yl)-4-(4-((4-methylpiperazine-1-yl)methyl)phenyl)pyrimidin-2-amine] | 1 to 10 | 1 to 10
7 | Cc1cc(-c2ccnc(Nc3cnn(C)c3)n2)cnc1NC(=O)CC(F)(F)F [TDM-180908, 3,3,3-trifluoro-N-(3-methyl-5-(2-((1-methyl-1H-pyrazol-4-yl)amino)pyrimidin-4-yl)pyridin-2-yl)propanamide] | 1 to 10 | 0.1 to 1
8 | Cc1cc(-c2ccnc(Nc3cnn(C)c3)n2)ccc1-n1nccc1C1CC1 [TDM-180782, 4-(4-(5-cyclopropyl-1H-pyrazol-1-yl)-3-methylphenyl)-N-(1-methyl-1H-pyrazol-4-yl)pyrimidin-2-amine] | 1 to 10 | ≥ 10
9 | Cn1cc(Nc2nccc(-c3ccc(NS(=O)(=O)CCCF)nc3)n2)cn1 [TDM-180903, 3-fluoro-N-(5-(2-((1-methyl-1H-pyrazol-4-yl)amino)pyrimidin-4-yl)pyridin-2-yl)propane-1-sulfonamide] | 1 to 10 | 1 to 10
10 | Cn1cc(Nc2nccc(-c3cnc(NC(=O)CC(F)(F)F)cn3)n2)cn1 [TDM-180905, 3,3,3-trifluoro-N-(5-(2-((1-methyl-1H-pyrazol-4-yl)amino)pyrimidin-4-yl)pyrazin-2-yl)propanamide] | 1 to 10 | 0.1 to 1
11 | CCS(=O)(=O)Nc1ncc(-c2ccnc(Nc3cnn(C)c3)n2)cn1 [TDM-180919, N-(2-((1-methyl-1H-pyrazol-4-yl)amino)-[4,5′-bipyrimidin]-2′-yl)ethanesulfonamide] | ≥ 10 | ≥ 10

The next lines start with the values.

Row | IC50 (Tyk2) [µM] | IC50 (JAK1) [µM] | SMILES
12 | 0.1 to 1 | 0.1 to 1 | Cn1cc(Nc2nccc(-c3ccc(NS(=O)(=O)CCCF)cc3)n2)cn1 [TDM-180896, 3-fluoro-N-(4-(2-((1-methyl-1H-pyrazol-4-yl)amino)pyrimidin-4-yl)phenyl)propane-1-sulfonamide]
13 | 0.1 to 1 | < 0.1 | Cn1cc(Nc2nccc(-n3ccc4c(NC(=O)CC(F)(F)F)cccc43)n2)cn1 [TDM-180882, 3,3,3-trifluoro-N-(1-(2-((1-methyl-1H-pyrazol-4-yl)amino)pyrimidin-4-yl)-1H-indol-4-yl)propanamide]
14 | 0.1 to 1 | < 0.1 | Cn1cc(Nc2nccc(-n3ccc4c(NC(=O)C5CC5)cccc43)n2)cn1 [TDM-180876, N-(1-(2-((1-methyl-1H-pyrazol-4-yl)amino)pyrimidin-4-yl)-1H-indole-4-yl)cyclopropanemethane]
15 | 1 to 10 | 1 to 10 | Cc1cc(-c2ccnc(Nc3cnn(C)c3)n2)ccc1C(=O)NCC#N [TDM-180779, N-(cyanomethyl)-2-methyl-4-(2-((1-methyl-1H-pyrazol-4-yl)amino)pyrimidin-4-yl)benzamide]
16 | 1 to 10 | 0.1 to 1 | CCOCCS(=O)(=O)Nc1ccc(-c2ccnc(Nc3cnn(C)c3)n2)cn1 [TDM-180877, 2-ethyoxyl-N-(5-(2-((1-methyl-1H-pyrazol-4-yl)amino)pyrimidin-4-yl)pyridin-2-yl)ethanesulfonamide]
17 | < 0.1 | < 0.1 | Cn1cc(Nc2nccc(-c3ccc(NC(=O)C4CC4(F)F)c4[nH]ccc34)n2)cn1 (stereo not shown) [TDM-180868, 2,2-difluoro-N-(4-(2-((1-methyl-1H-pyrazol-4-yl)amino)pyrimidin-4-yl)-1H-indol-7-yl)cyclopropane-1-carboxamide]
18 | 0.1 to 1 | 0.1 to 1 | Cn1cc(Nc2nccc(-c3ccc(NC(=O)CC4CC4)c4[nH]ncc34)n2)cn1 [TDM-180917, 2-cyclopropyl-N-(4-(2-((1-methyl-1H-pyrazol-4-yl)amino)pyrimidin-4-yl)-1H-indazol-7-yl)acetamide]
19 | 1 to 10 | 1 to 10 | Cn1cc(Nc2nccc(-c3cnc(NC(=O)CC#N)nc3)n2)cn1 [TDM-180902, 2-cyano-N-(2-((1-methyl-1H-pyrazol-4-yl)amino)-[4,5′-bipyrimidin]-2′-yl)acetamide]
20 | 0.1 to 1 | 0.1 to 1 | Cn1cc(Nc2nccc(-c3ccc(NC(=O)C4CC4)c4[nH]ccc34)n2)cn1 [TDM-180869, N-(4-(2-((1-methyl-1H-pyrazol-4-yl)amino)pyrimidin-4-yl)-1H-indol-7-yl)cyclopropanecarboxamide]
21 | 1 to 10 | 0.1 to 1 | Cn1cc(Nc2nccc(-c3cnc(NC(=O)CC(F)(F)F)nc3)n2)cn1 [TDM-180887, 3,3,3-trifluoro-N-(2-((1-methyl-1H-pyrazol-4-yl)amino)-[4,5′-bipyrimidin]-2′-yl)propanamide]
22 | 1 to 10 | 1 to 10 | Cn1cc(Nc2nccc(-c3cnc(NC(=O)C4CC4)nc3)n2)cn1 [TDM-180904, N-(2-((1-methyl-1H-pyrazol-4-yl)amino)-[4,5′-bipyrimidin]-2′-yl)cyclopropanecarboxamide]
23 | 1 to 10 | 1 to 10 | Cc1cc(-c2ccnc(Nc3cnn(C)c3)n2)cnc1NC(=O)CC#N [TDM-180907, 2-cyano-N-(3-methyl-5-(2-((1-methyl-1H-pyrazol-4-yl)amino)pyrimidin-4-yl)pyridin-2-yl)acetamide]
24 | 1 to 10 | 1 to 10 | Cn1cc(Nc2nccc(-c3ccc(NC(=O)CO)nc3)n2)cn1 [TDM-180806, 2-hydroxy-N-(5-(2-((1-methyl-1H-pyrazol-4-yl)amino)pyrimidin-4-yl)pyridin-2-yl)acetamide]
25 | 0.1 to 1 | < 0.1 | Cn1cc(Nc2nccc(-c3ccc(NC(=O)CC(F)(F)F)c4[nH]ccc34)n2)cn1 [TDM-180870, 3,3,3-trifluoro-N-(4-(2-((1-methyl-1H-pyrazol-4-yl)amino)pyrimidin-4-yl)-1H-indol-7-yl)propanamide]
26 | 0.1 to 1 | < 0.1 | Cn1cc(Nc2nccc(-c3ccc(NC(=O)[C@H]4CC4(F)F)nc3)n2)cn1 [TDM-180939, (R)-2,2-difluoro-N-(5-(2-((1-methyl-1H-pyrazol-4-yl)amino)pyrimidin-4-yl)pyridin-2-yl)cyclopropane-1-carboxamide]

— patent publication US20240174648A1, “Small Molecule Compound” (Technoderma Medicines Pte Ltd, priority 2019, published 2024)
